# Results published in PMC10185773, “Interactions of the protein tyrosine phosphatase PTPN3 with viral and cellular partners through its PDZ domain: insights into structural determinants and phosphatase activity” (Frontiers in Molecular Biosciences, 2023).
# Read-outs that look alike come from different tables or passages of the source.
# T1: PTPN3-Bidomain (Homo sapiens, UniProt P26045)
# T1 construct: 6xHis (N); made in house; host or cells: E. coli BL21 Star (DE3)
# T1 sequence (P26045 488-913): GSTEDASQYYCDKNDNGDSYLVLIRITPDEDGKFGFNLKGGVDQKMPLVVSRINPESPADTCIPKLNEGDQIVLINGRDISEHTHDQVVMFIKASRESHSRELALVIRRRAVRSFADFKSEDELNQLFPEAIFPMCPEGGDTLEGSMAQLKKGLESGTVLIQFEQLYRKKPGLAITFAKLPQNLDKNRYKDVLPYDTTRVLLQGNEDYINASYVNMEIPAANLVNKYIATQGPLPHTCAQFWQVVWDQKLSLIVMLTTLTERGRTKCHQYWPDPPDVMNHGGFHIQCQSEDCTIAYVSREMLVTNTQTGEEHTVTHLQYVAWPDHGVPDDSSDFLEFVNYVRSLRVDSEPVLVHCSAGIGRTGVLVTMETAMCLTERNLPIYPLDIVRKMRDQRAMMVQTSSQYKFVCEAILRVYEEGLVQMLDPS
# T2: PTPN3-PDZ (Homo sapiens, UniProt P26045)
# T2 construct: GST (N, cleaved yes); made in house; host or cells: E. coli BL21 Star (DE3)
# T2 sequence (P26045 510-582 limits assumed): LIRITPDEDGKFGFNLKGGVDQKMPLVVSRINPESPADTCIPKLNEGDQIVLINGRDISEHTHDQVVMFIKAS
# Legend:
# [1] = system: library of human PDZ domains (266 PDZ domains, 97% of the human PDZome); assay: Holdup assay, PDZome-binding profile; conditions: holdup against human PDZome; about 10% of the PDZome
# Description: (§1) The holdup assay was conducted against the biotinylated peptide PBM-p38γ (Supplementary Material S1) following previously established protocols ([Vincentelli et al., 2015]; [Duhoo et al., 2019]) with some slight modifications. In summary, we utilized a high-throughput technique to measure the affinities and specificities of motifs in a library of human PDZ domains, which involved the use of both robotic and microfluidic methodologies. To achieve this, we expressed 266 PDZ domains fused with the Maltose Binding Protein (MBP) tag, which constituted 97% of the human PDZome. Bacterial extracts containing overexpressed PDZ domains were incubated with PBM peptide-coated resins in 96-well plates, then filtered and evaluated using microfluidic capillary electrophoresis to determine binding intensities (BIs) in the flowthroughs. […]
# (§2) Then, we investigated the specificity profiles of the PBMs of the PTPN3-PDZ ligands p38γ and of HBc against the full human PDZome (library that contains all the known human PDZ domains) ([Duhoo et al., 2019]). […] 12-mer peptides encompassing the protein C-terminal PBM sequences linked to a biotinyl group are used as baits to quantify the interaction between PBMs and the library of human PDZ domains expressed in Escherichia coli ([Duhoo et al., 2019]). […]
# PTPN3-Bidomain = target: T1, PTPN3-Bidomain; assay: pNPP hydrolysis by PTPN3-Bidomain pre-incubated with PBM peptide; assay type: biochemical; conditions: Bidomain 75 nM + large excess of peptide (molar ratio 600:1, 30 min at 25°C), pNPP 19 µM-10 mM, pH 7.5, 25°C, A410, three independent experiments; for Km: substrate-inhibition Michaelis-Menten fit
# Description: We performed enzymatic assays on the constructs PTPN3-Bidomain, PTPN3-linker-PTP, PTPN3-shLinker-PTP (short linker, missing 23 residues) and PTPN3-PDZ (Figure 1). In all experiments, the phosphatase activity was assessed using the synthetic nonspecific phosphatase substrate p-nitrophenyl phosphate (pNPP), whose hydrolysis into p-nitrophenol (pNP) can be followed spectrophotometrically at 410 nm. Reactions were performed in 50 mM Tris-HCl, pH 7.5, 1 mM MgCl2, 150 mM NaCl, 0.5 mM.
# TCEP The initial reaction rates were measured independently at pH 7.5 and at 25°C. pNPP was assayed for concentrations ranging from 19 μM to 10 mM at an enzyme concentration of 75 nM. […] The experimental data was therefore fitted to a corrected Michaelis-Menten equation to take into consideration this inhibition.
# The equation is: Vo = Vmax [S]/(Km + [S] + [S]2/Ki) with Vo the initial rate, Vmax the maximal rate, [S] the substrate concentration and Ki the inhibition constant.
# Phosphatase activity was measured by following the hydrolysis of pNPP as previously described ([Maisonneuve et al., 2014]). Absorbances were measured continuously at 410 nm for pNP, using a Thermo Scientific UV spectrometer equilibrated at 25°C. Initial linear reaction rates were calculated during a 60 s reaction. The kcat and KM constants were deduced from fitting the Michaelis-Menten equation with the Prism software. The data are representative of three independent experiments.
# A large excess (molar ratio 600:1) of each peptide was incubated with PTPN3-Bidomain for 30’ at 25°C, and the initial rates of the dephosphorylation reaction were measured in the same range of pNPP concentrations.
# To assess whether the PBM binding to the PDZ domain releases the catalytic inhibition as observed for PTPN4 ([Maisonneuve et al., 2014]), we added the PBM peptides of the PTPN3 cellular partners, PBM-TACE and PBM-p38γ, and the viral peptides PBM-16E6, PBM-HBc, in large excess ([…]) to PTPN3-Bidomain (Figure 7A; Table 3). For all peptides, a 2-fold decrease in kcat compared to PTPN3-linker-PTP is measured, as in the unbound Bidomain, while the KM remained unaffected (Table 3). Thus, we concluded that the PBM binding has no effect on PTPN3 catalytic activity in our conditions. Accordingly, the specificity constants (kcat/KM) of the complexed Bidomain are in the same range in comparison with the values of PTPN3-Bidomain (Table 3).
# PTPN3-PDZ [2] = target: T2, PTPN3-PDZ; assay: Holdup assay (binding intensity), PTPN3-PDZ; conditions: biotinylated 12-mer peptide on resin, MBP-PDZ bacterial extract, capillary electrophoresis, mean BI, significance threshold 0.2
# Description: as §1, §2
# PTPN4-PDZ [3] = assay: Holdup assay (binding intensity), PTPN4-PDZ; design: species or system human; conditions: biotinylated 12-mer peptide on resin, MBP-PDZ bacterial extract, capillary electrophoresis, mean BI, significance threshold 0.2
# Description: as §1, §2
# [4] = target: biotinylated peptide PBM-p38γ (12-mer, holdup bait); assay: holdup assay; biotinylated PBM peptide on resin in 96-well plates; bacterial extracts with overexpressed MBP-PDZ domains incubated, filtered, flowthrough read by microfluidic capillary electrophoresis; binding intensity (BI), threshold 0.2
# [5] = system: library of human PDZ domains (266 PDZ domains, 97% of the human PDZome); conditions: holdup against human PDZome; ref Genera et al., 2021; cited from earlier work
# Source text: (§3) We generated a PDZome-binding profile of PBM-p38γ. Mean values of binding intensities (BI) ranked based on affinity are reported in Supplementary Material S1. The highest BI values indicate the PDZ domains recognized with the best affinities by the peptides used as bait. […] In recent work we established the PDZome-binding profile of PBM-HBc with 28 PDZ domains also identified as significant binders ([Genera et al., 2021]). Thus, this similar number of P ...
# PTPN3-PDZ [6] = target: T2, PTPN3-PDZ; conditions: holdup, biotinylated 12-mer peptide; threshold 0.2; ref Genera et al., 2021; cited from earlier work
# Source text: as §3
# PTPN4-PDZ [7] = conditions: holdup, biotinylated 12-mer peptide; threshold 0.2; ref Genera et al., 2021; cited from earlier work
# Source text: as §3
# [8] = target: HBc PBM (Hepatitis B virus) (UniProt P03149); conditions: cited from earlier work
# p38γ PBM (Homo sapiens) = p38γ PBM (Homo sapiens) (UniProt P53778); conditions: cited from earlier work
# [9] = target: HPV16 E6 PBM (Human papillomavirus type 16) (UniProt P03126); conditions: cited from earlier work
# [10] = target: HPV18 E6 PBM (Human papillomavirus type 18) (UniProt P06463); conditions: cited from earlier work
# [11] = target: PTPN3 PDZ domain (PTPN3-PDZ) (human, UniProt P26045-1 510-582, Limits taken from the PDB 6HKS/8OEP/8CQY entity (offset 483, N-terminal GAMGS tag remnant left out); the end at 597 agrees with the printed linker start at 598. 15N-labelled for NMR.); assay: NMR titration; 1H,15N HSQC chemical shift perturbations of 15N-labelled PTPN3-PDZ (117 μM); PBM-TACE added stepwise, PDZ:peptide 1:0 to 1:8.5, 11 points; 15°C; 50 mM Tris/HCl pH 7.5, 150 mM NaCl, 0.5 mM TCEP, 5% D2O; 1:1 model, 14 peaks; conditions: both partners purified
# Chain of HPV18 E6 PBM (Human papillomavirus type 18) (P06463 whole entry, looked up, the tested form may be a part): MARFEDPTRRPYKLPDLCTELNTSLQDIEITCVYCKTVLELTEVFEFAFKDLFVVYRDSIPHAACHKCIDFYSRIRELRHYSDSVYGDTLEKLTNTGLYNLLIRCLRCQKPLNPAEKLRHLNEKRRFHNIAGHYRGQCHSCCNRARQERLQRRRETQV
# Chain of HPV16 E6 PBM (Human papillomavirus type 16) (P03126 whole entry, looked up): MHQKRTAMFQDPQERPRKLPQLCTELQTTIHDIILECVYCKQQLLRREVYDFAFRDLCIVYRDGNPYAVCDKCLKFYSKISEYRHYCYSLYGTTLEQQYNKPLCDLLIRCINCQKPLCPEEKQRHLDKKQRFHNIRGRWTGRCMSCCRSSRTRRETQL
molecule,measurement,setting,value
WARVS K E T P L [PBM-p38γ],number of PDZ domains with significant binding (BI greater than 0.2),[1],28 PDZ domains
same,Km,PTPN3-Bidomain,1200 ± 300 µM
same,k cat of pNPP hydrolysis,PTPN3-Bidomain,1.7 ± 0.2 s^-1
same,binding intensity (BI),PTPN3-PDZ [2],0.52
same,binding intensity (BI),PTPN4-PDZ [3],0.60
RSSRTR R E T Q L [PBM-16E6],Km,PTPN3-Bidomain,800 ± 100 µM
same,k cat of pNPP hydrolysis,PTPN3-Bidomain,1.5 ± 0.1 s^-1
PTPN3-PDZ of the holdup PDZome library (MBP fusion) (from UniProt P26045-1 510-582) (domain or fragment),binding intensity (BI),[4],0.52
RRRRSQS R E S Q C [PBM-HBc],Km,PTPN3-Bidomain,1300 ± 100 µM
same,k cat of pNPP hydrolysis,PTPN3-Bidomain,1.6 ± 0.1 s^-1
same,number of PDZ domains identified as significant binders,[5],28 PDZ domains
same,binding intensity (BI),PTPN3-PDZ [6],0.45
same,binding intensity (BI),PTPN4-PDZ [7],0.58
PTPN3 PDZ (from UniProt P26045),Kd,[8],29 µM
same,Kd,p38γ PBM (Homo sapiens),26 µM
same,Kd,[9],53 µM
same,Kd,[10],37 µM
PTPN4-PDZ of the holdup PDZome library (MBP fusion) (domain or fragment) LIRMKPDENGRFGFNVKGGYDQKMPVIVSRVAPGTPADLCVPRLNEGDQVVLINGRDIAEHTHDQVVLFIKAS,binding intensity (BI),[4],0.6
"RQNRVDSKETEC (last C-terminal 12 residues of TACE (tumor necrosis factor alpha-convertase, ADAM17), encompassing the PBM; also called PBM of the tumor necrosis factor-alpha converting enzyme; source: synthetic peptide (solid phase, Fmoc; Proteogenix)) [PBM-TACE peptide (last C-terminal 12 residues of TACE)]",Kd,[11],30 µM
